Article PMC9081086, “Stapling strategy enables improvement of antitumor activity and proteolytic stability of host-defense peptide hymenochirin-1B” (RSC Advances, 2018)
Positions of bridges follow the written chain, without caps; N, C: chain ends. Non-standard residues stand in square brackets, D forms with d. Residues, ends and D or L forms follow the SMILES beside them. S5 = C=CCCC[C@](C)(N)C(=O)O

Legend:
[1] = all-hydrocarbon stapling by ring-closing olefin metathesis between S5/S5 (i,i+4) or R8/S5 (i,i+7) olefinic residues, Grubbs 1st-generation catalyst (10 mM in DCE per text; 6 mM per schemes), 2 x 2 h, on Rink Amide MBHA resin; settings: the molecule shown is the open-chain precursor, 35.0 °C, 60 steps
[2] = test system: human normal liver cell LO-2; assay: MTT toxicity against normal cells, LO-2; assay type: cell-based; settings: 96 h
Protocol: (§1) Anti-tumor activity was evaluated by the standard MTT assay with a slight modification measuring the median inhibitory concentration (IC50) values.[35] HCT-116 cells, HepG2 cells and A549 cells were plated in triplicate wells into a 96-well plate at 5 × 10^3/well and cultured routinely for 24 h. Cells were incubated with increasing concentrations of hymenochirin-1B and its analogs (0.1–30 μM) and continued to culture with DMEM plus 10% FBS at 37 °C and 5% CO2. After being incubated for 96 h, the absorbance A value was determined by MTT at 540 nm. The untreated HCT-116 cells, HepG2 cells and A549 cells were used as control. Each experiment was performed in duplicate. The inhibitory rate was calculated according to the following formula: inhibitory rate = (a value of the control group − a value of the study group)/a value of the control group × 100%.
(§2) To further research the selectivity of these peptides towards cancer cells over normal cells. The growth-inhibitory activities of peptides were evaluated using the 3-(4,5-dimethylthiazol-2-yl)-2,5-diphenyltetrazolium bromide (MTT) assay against three normal cells,[35] namely, human normal liver cell LO-2, human normal Lung cell BEAS-2 and human normal kidney cell 293 T (Table S2 ^†). The experiments procedure was performed just same as growth inhibition of the peptides against tumor cells. […] It might be due to the higher averaged hydrophobicity produced by six or nine additional methylene and two olefinic carbons to the peptide to increase toxicity to human normal cells. This situation may be resolved through the addition of polar character and glycosylation into the sequence to decrease the averaged hydrophobicity to improve the selectivity of these peptides towards cancer cells over normal cells. These modifications of these peptides are under way, and the present study was focused on the improved anti-tumor activity of template peptide hymenochirin-1B.

[3] = test system: human normal Lung cell BEAS-2; assay: MTT toxicity against normal cells, BEAS-2B; assay type: cell-based; settings: 96 h
Protocol: as §1, §2

[4] = Protease resistance (trypsin degradation, HPLC); assay type: in vitro ADME; settings: trypsin solution (5 ng/µL), room temperature, HPLC 214 nm, duplicate; for half-life at 0.1 mM: trypsin 5 ng/μL in 50 mM PBS with 2 mM CaCl2, pH 7.4 (method: trypsin buffer pH 8), peptide 0.1 mM final, sampled 0–3.5 h, HCl quench, read-out: half-life (t1/2) toward trypsin degradation (converted)
Protocol: The peptides were dissolved in PBS buffer solutions (50 mM, pH = 7.4) to a final concentration of 1 mM, respectively. Trypsin was dissolved in PBS buffer (50 mM, containing 2 mM of CaCl2, pH = 8) to a final concentration of 5 ng μL^−1. Then the peptide solutions (100 μL) were incubated with trypsin solution (1 mL) at room temperature. 100 μL of digestion mixture was taken at the 0, 0.5, 1.0, 1.5, 2.0, 2.5, 3.0, and 3.5 h marks, then quenched with 20 μL of hydrochloric acid (1 M). The solution of the trypsin peptide fragments was monitored by HPLC at different time to determine the fraction of protease degradation at 214 nm. Each experiment was performed in duplicate.
To assess the protease stability of the stapled peptides, we measured their susceptibility toward trypsin degradation at room temperature in PBS buffer (pH 7.4) with monitored by HPLC. Trypsin is a protease that predominantly cleaves at the carboxyl terminus of positive charge amino acids, such as arginine and lysine. […] Especially, only about 49% of bicyclic stapled peptide H-10 was cleaved after 3.5 h (Fig. 3 and S4 ^†).
Fig. 3 Proteolytic stability of peptides incubated in trypsin solution (5 ng μL^−1 in 50 mM PBS buffer, pH = 7.4) at a final concentration of 0.1 mM. […] The percent of residual peptide was monitored by Analytic HPLC. All experiments were repeated at least three times. H-0 represents hymenochirin-1B.

[5] = test system: human normal kidney cell 293 T; assay: MTT toxicity against normal cells, 293T; assay type: cell-based; settings: 96 h
Protocol: as §1, §2

[6] = Circular dichroism, α-helicity; assay type: physicochemical; settings: CD, TFE/water (1:1), 50 μM peptide, 25 °C, 1 mm cuvette, calculated from [θ]222
Protocol: The linear and stapled peptides were dissolved in the trifluoroethanol (TFE) and water (1 : 1) to a final concentration of 50 μM, respectively. The CD spectra were obtained with 1 mm quartz cuvette on Jasco-815 spectropolarimeter at 25 °C. The measurement parameters were set up as follows: wavelength, 185–260 nm; step resolution, 0.5 nm; speed, 20 nm min^−1. All spectra were converted to a uniform scale of molar ellipticity after background subtraction. The curves were smoothed using standard parameters. The ellipticity in the acquired CD spectra was converted to the molar ellipticity using the equation: [θ] = θ/(10 × c × l), where, [θ] is the Molar ellipticity (deg cm^2. d mol^−1), θ is the observed ellipticity corrected for the buffer at a given wavelength (m deg), c is the molar concentration and l is the path length (cm). The helicity of each peptide was calculated as described in a literature based on the ellipticity of the peptide's spectrum at 222 nm and the number of amino acids in the peptide sequence.
Circular dichroism (CD) spectroscopy was used to investigate the secondary structures of the stapled and template peptides to probe structural changes induced by conformation constraint in a membrane-like milieu, including […] (TFE) and water (1 : 1). […] (Table 1, ESI ^†).

[7] = 33-membered ring, 1,2-dichloroethane, 4.0 h

Molecule | half-life at 0.1 mM [4] | Helicity (%) [6] | metabolised at 3.5 h, 0.1 mM ([4]; trypsin 5 ng/μL in 50 mM PBS, pH 7.4, peptide 0.1 mM final, 3.5 h, read-out: peptide cleaved by trypsin after 3.5 h) | ring closure, overall yield [1, 7] | IC50 (μM) LO-2, toxicity against normal cells [2] | IC50 (μM) BEAS-2B, toxicity against normal cells [3] | IC50 (μM) 293T, toxicity against normal cells [5] | ring closure, overall yield ([1]; 21-membered ring, 1,2-dichloroethane)
C=CCCCCCC[C@@](C)(NC(=O)[C@@H](NC(=O)[C@H](C)NC(=O)CNC(=O)[C@H](CCCCNC(=O)OC(C)(C)C)NC(=O)[C@H](CC(C)C)NC(=O)[C@@H](NC(=O)[C@H](CCCCNC(=O)OC(C)(C)C)NC(=O)[C@H](CCCCNC(=O)OC(C)(C)C)NC(=O)[C@H](CC(C)C)NC(=O)[C@H](CC(=O)NC(c1ccccc1)(c1ccccc1)c1ccccc1)NC(=O)[C@H](CC(=O)OC(C)(C)C)NC(=O)[C@H](CCCCNC(=O)OC(C)(C)C)NC(=O)[C@@H](NC(=O)[C@H](CCC(=O)OC(C)(C)C)NC(=O)[C@@H]1CCCN1C(=O)[C@H](COC(C)(C)C)NC(=O)[C@H](CC(C)C)NC(=O)[C@H](CCCCNC(=O)OC(C)(C)C)NC(=O)[C@@H](NC(=O)OCC1c2ccccc2-c2ccccc21)[C@@H](C)CC)[C@@H](C)OC(C)(C)C)C(C)C)[C@@H](C)CC)C(=O)NCC(=O)N[C@@H](C)C(=O)N[C@H](C(=O)N[C@@H](C)C(=O)N[C@H](C(=O)N[C@@H](C)C(=O)N[C@@](C)(CCCC=C)C(=O)N[C@@H](CCSC)C(=O)N[C@H](C(N)=O)C(C)C)C(C)C)[C@@H](C)CC | – | – | – | 7.25% | – | – | – | –
C=CCCCCCC[C@@](C)(NC(=O)[C@H](CC(=O)OC(C)(C)C)NC(=O)[C@H](CCCCNC(=O)OC(C)(C)C)NC(=O)[C@@H](NC(=O)[C@H](CCC(=O)OC(C)(C)C)NC(=O)[C@@H]1CCCN1C(=O)[C@H](COC(C)(C)C)NC(=O)[C@H](CC(C)C)NC(=O)[C@H](CCCCNC(=O)OC(C)(C)C)NC(=O)[C@@H](NC(=O)OCC1c2ccccc2-c2ccccc21)[C@@H](C)CC)[C@@H](C)OC(C)(C)C)C(=O)N[C@@H](CC(C)C)C(=O)N[C@@H](CCCCNC(=O)OC(C)(C)C)C(=O)N[C@@H](CCCCNC(=O)OC(C)(C)C)C(=O)N[C@H](C(=O)N[C@@H](CC(C)C)C(=O)N[C@@H](CCCCNC(=O)OC(C)(C)C)C(=O)N[C@@](C)(CCCC=C)C(=O)N[C@@H](C)C(=O)N[C@H](C(=O)N[C@@H](CCCCNC(=O)OC(C)(C)C)C(=O)NCC(=O)N[C@@H](C)C(=O)N[C@H](C(=O)N[C@@H](C)C(=O)N[C@H](C(=O)N[C@@H](C)C(=O)N[C@@H](CCCCNC(=O)OC(C)(C)C)C(=O)N[C@@H](CCSC)C(=O)N[C@H](C(N)=O)C(C)C)C(C)C)[C@@H](C)CC)[C@@H](C)CC)C(C)C | – | – | – | 6.51% | – | – | – | –
final: H-I-K-L-S-P-[S5]-T-K-D-[S5]-L-K-K-V-L-K-G-[S5]-I-K-G-[S5]-I-A-V-A-K-M-V-NH2; 1st RCM on Fmoc-[S5]-I-K-G-[S5]-I-A-V-A-K-M-V-resin, 2nd RCM on Fmoc-[S5]-T-K-D-[S5]-L-K-K-V-L-K-G-[S5]-I-K-G-[S5]-I-A-V-A-K-M-V-resin (C-terminal S5 pair already stapled) | – | – | – | – | – | – | – | 5.43%

Second part, led by results:

half-life at 0.1 mM [4] | Helicity (%) [6] | metabolised at 3.5 h, 0.1 mM ([4]; trypsin 5 ng/μL in 50 mM PBS, pH 7.4, peptide 0.1 mM final, 3.5 h, read-out: peptide cleaved by trypsin after 3.5 h) | Molecule | ring closure, overall yield [1, 7] | IC50 (μM) LO-2, toxicity against normal cells [2] | IC50 (μM) BEAS-2B, toxicity against normal cells [3] | IC50 (μM) 293T, toxicity against normal cells [5] | ring closure, overall yield ([1]; 21-membered ring, 1,2-dichloroethane)
0.5 h | 49.3% | – | CC[C@H](C)[C@H](N)C(=O)N[C@@H](CCCCN)C(=O)N[C@@H](CC(C)C)C(=O)N[C@@H](CO)C(=O)N1CCC[C@H]1C(=O)N[C@@]1(C)CCCC=CCCC[C@@](C)(C(=O)N[C@@H](CC(C)C)C(=O)N[C@@H](CCCCN)C(=O)N[C@@H](CCCCN)C(=O)N[C@H](C(=O)N[C@@H](CC(C)C)C(=O)N[C@@H](CCCCN)C(=O)NCC(=O)N[C@@H](C)C(=O)N[C@H](C(=O)N[C@@H](CCCCN)C(=O)NCC(=O)N[C@@H](C)C(=O)N[C@H](C(=O)N[C@@H](C)C(=O)N[C@H](C(=O)N[C@@H](C)C(=O)N[C@@H](CCCCN)C(=O)N[C@@H](CCSC)C(=O)N[C@H](C(N)=O)C(C)C)C(C)C)[C@@H](C)CC)[C@@H](C)CC)C(C)C)NC(=O)[C@H](CC(=O)O)NC(=O)[C@H](CCCCN)NC(=O)[C@H]([C@@H](C)O)NC1=O [H-2] (H-IKLSP[S5]TKD[S5]LKKVLKGAIKGAIAVAKMV-NH2; staple 6-10) | – | 3.40 ± 0.32 µM | 3.12 ± 0.52 µM | 3.20 ± 0.33 µM | –
2.8 h | 69.2% | – | CC[C@H](C)[C@H](N)C(=O)N[C@@H](CCCCN)C(=O)N[C@@H](CC(C)C)C(=O)N[C@@H](CO)C(=O)N1CCC[C@H]1C(=O)N[C@@H](CCC(=O)O)C(=O)N[C@H](C(=O)N[C@@H](CCCCN)C(=O)N[C@@H](CC(=O)O)C(=O)N[C@@H](CC(N)=O)C(=O)N[C@@H](CC(C)C)C(=O)N[C@@H](CCCCN)C(=O)N[C@@H](CCCCN)C(=O)N[C@H](C(=O)N[C@@H](CC(C)C)C(=O)N[C@@H](CCCCN)C(=O)NCC(=O)N[C@@]1(C)CCCC=CCCC[C@@](C)(C(=O)N[C@H](C(=O)N[C@@H](C)C(=O)N[C@H](C(=O)N[C@@H](C)C(=O)N[C@@H](CCCCN)C(=O)N[C@@H](CCSC)C(=O)N[C@H](C(N)=O)C(C)C)C(C)C)[C@@H](C)CC)NC(=O)CNC(=O)[C@H](CCCCN)NC(=O)[C@H]([C@@H](C)CC)NC1=O)C(C)C)[C@@H](C)O [H-5] (H-IKLSPETKDNLKKVLKG[S5]IKG[S5]IAVAKMV-NH2; staple 18-22) | – | 3.57 ± 0.52 µM | 5.76 ± 0.32 µM | 4.70 ± 0.32 µM | –
– | 73.3% | ~49% | CC[C@H](C)[C@H](N)C(=O)N[C@@H](CCCCN)C(=O)N[C@@H](CC(C)C)C(=O)N[C@@H](CO)C(=O)N1CCC[C@H]1C(=O)N[C@@]1(C)CCCC=CCCC[C@@](C)(C(=O)N[C@@H](CC(C)C)C(=O)N[C@@H](CCCCN)C(=O)N[C@@H](CCCCN)C(=O)N[C@H](C(=O)N[C@@H](CC(C)C)C(=O)N[C@@H](CCCCN)C(=O)NCC(=O)N[C@@]2(C)CCCC=CCCC[C@@](C)(C(=O)N[C@H](C(=O)N[C@@H](C)C(=O)N[C@H](C(=O)N[C@@H](C)C(=O)N[C@@H](CCCCN)C(=O)N[C@@H](CCSC)C(=O)N[C@H](C(N)=O)C(C)C)C(C)C)[C@@H](C)CC)NC(=O)CNC(=O)[C@H](CCCCN)NC(=O)[C@H]([C@@H](C)CC)NC2=O)C(C)C)NC(=O)[C@H](CC(=O)O)NC(=O)[C@H](CCCCN)NC(=O)[C@H]([C@@H](C)O)NC1=O [H-10] (H-IKLSP[S5]TKD[S5]LKKVLKG[S5]IKG[S5]IAVAKMV-NH2; staple 6-10, 18-22) | – | 8.78 ± 0.32 µM | 5.52 ± 0.42 µM | 10.42 ± 0.25 µM | –
